From ChEMBL document CHEMBL3351531, “Scaffold hopping of sampangine: discovery of potent antifungal lead compound against Aspergillus fumigatus and Cryptococcus neoformans” (Bioorg Med Chem Lett, 2014)
Converted amounts (≈) assume the structure as drawn.

Columns and labels:
[1] = tested on: Candida parapsilosis; test: Antifungal activity against Candida parapsilosis after 24 hrs by serial dilution method; assay type: functional; details: Lodderomyces parapsilosis
[2] = tested on: Aspergillus fumigatus; test: Antifungal activity against Aspergillus fumigatus after 7 days by serial dilution method; assay type: functional; details: 168 h
[3] = tested on: Cryptococcus neoformans; test: Antifungal activity against Cryptococcus neoformans after 72 hrs by serial dilution method; assay type: functional
[4] = tested on: Candida albicans; test: Antifungal activity against Candida albicans after 24 hrs by serial dilution method; assay type: functional
[5] = tested on: Nakaseomyces glabratus; test: Antifungal activity against Candida glabrata after 24 hrs by serial dilution method; assay type: functional
[6] = tested on: Trichophyton rubrum; test: Antifungal activity against Trichophyton rubrum by serial dilution method; assay type: functional
[7] = tested on: Nannizzia gypsea; test: Antifungal activity against Microsporum gypseum by serial dilution method; assay type: functional
[8] = Kinetic solubility of the compound in PBS buffer at pH 7.4; assay type: physicochemical; details: read-out: Kinetic_solubility

| Structure (SMILES) | MIC80 [1] [µg/mL] | MIC80 [2] [µg/mL] | MIC80 [3] [µg/mL] | MIC80 [4] [µg/mL] | MIC80 [5] [µg/mL] | MIC80 [6] [µg/mL] | MIC80 [7] [µg/mL] | solubility kinetic [8] [µg/mL] |
| --- | --- | --- | --- | --- | --- | --- | --- | --- |
| CC1(C)CC2=C(O1)C(=O)c1nccc3ccnc2c13 | > 64 | 1 (≈ 3.96 µM) | 2 (≈ 7.93 µM) | > 64 | 0.125 (≈ 0.495 µM) | 8 (≈ 31.7 µM) | > 64 | 27 (≈ 107 µM) |
| O=C1c2ccsc2-c2nccc3ccnc1c23 | 8 (≈ 33.6 µM) | 1 (≈ 4.2 µM) | 0.25 (≈ 1.05 µM) | 4 (≈ 16.8 µM) | 4 (≈ 16.8 µM) | 2 (≈ 8.39 µM) | 2 (≈ 8.39 µM) | 48 (≈ 201 µM) |
| Cn1cc2c(c1)-c1nccc3ccnc(c13)C2=O | > 64 | > 64 | > 64 | > 64 | > 64 | > 64 | > 64 | 17 (≈ 72.3 µM) |
| O=C1c2occc2-c2nccc3ccnc1c23 | > 64 | 32 (≈ 144 µM) | 16 (≈ 72 µM) | 32 (≈ 144 µM) | 32 (≈ 144 µM) | 8 (≈ 36 µM) | 16 (≈ 72 µM) | – |
| O=C1c2ccoc2-c2nccc3ccnc1c23 | > 64 | 32 (≈ 144 µM) | 8 (≈ 36 µM) | 32 (≈ 144 µM) | 64 (≈ 288 µM) | 8 (≈ 36 µM) | 16 (≈ 72 µM) | – |
| Cn1ccc2c1C(=O)c1nccc3ccnc-2c13 | > 64 | 64 (≈ 272 µM) | 8 (≈ 34 µM) | 64 (≈ 272 µM) | 32 (≈ 136 µM) | 16 (≈ 68 µM) | > 64 | 22 (≈ 93.5 µM) |
| O=C1c2cc(Br)sc2-c2nccc3ccnc1c23 | 64 (≈ 202 µM) | 4 (≈ 12.6 µM) | 4 (≈ 12.6 µM) | 8 (≈ 25.2 µM) | 4 (≈ 12.6 µM) | 2 (≈ 6.31 µM) | 1 (≈ 3.15 µM) | – |
| O=C1c2ccsc2-c2nccc3c(Br)cnc1c23 | 16 (≈ 50.4 µM) | 8 (≈ 25.2 µM) | 4 (≈ 12.6 µM) | 4 (≈ 12.6 µM) | 4 (≈ 12.6 µM) | 2 (≈ 6.31 µM) | 0.5 (≈ 1.58 µM) | – |
| O=C1c2ccsc2-c2nccc3c(Cl)cnc1c23 | > 64 | 2 (≈ 7.33 µM) | 0.5 (≈ 1.83 µM) | 32 (≈ 117 µM) | 0.5 (≈ 1.83 µM) | 2 (≈ 7.33 µM) | 0.125 (≈ 0.458 µM) | – |
| O=C1c2cc(Cl)sc2-c2nccc3c(Cl)cnc1c23 | > 64 | > 64 | > 64 | 32 (≈ 104 µM) | > 64 | > 64 | 8 (≈ 26 µM) | – |
| CN1CCN(c2cnc3c4c(nccc24)-c2sccc2C3=O)CC1 | > 64 | > 64 | 64 (≈ 190 µM) | > 64 | 64 (≈ 190 µM) | > 64 | > 64 | – |
| COc1cnc2c3c(nccc13)-c1sccc1C2=O | > 64 | > 64 | > 64 | > 64 | > 64 | > 64 | > 64 | – |
| O=C1c2ccsc2-c2nc(-c3ccccc3)cc3ccnc1c23 | > 64 | > 64 | 4 (≈ 12.7 µM) | 32 (≈ 102 µM) | > 64 | 16 (≈ 50.9 µM) | > 64 | – |
| O=C1c2ccsc2-c2nc(-c3cccnc3)cc3ccnc1c23 | > 64 | > 64 | 32 (≈ 101 µM) | 32 (≈ 101 µM) | > 64 | > 64 | 32 (≈ 101 µM) | – |
| Cc1ccccc1-c1cc2ccnc3c2c(n1)-c1sccc1C3=O | > 64 | > 64 | > 64 | 32 (≈ 97.4 µM) | > 64 | 32 (≈ 97.4 µM) | > 64 | – |
| CC(=O)Nc1ccc(-c2cc3ccnc4c3c(n2)-c2sccc2C4=O)cc1 | > 64 | > 64 | > 64 | 32 (≈ 86.2 µM) | > 64 | > 64 | > 64 | – |
| OC(Cn1cncn1)(Cn1cncn1)c1ccc(F)cc1F [FLUCONAZOLE] | 1 (≈ 3.27 µM) | > 64 | 0.25 (≈ 0.816 µM) | 0.5 (≈ 1.63 µM) | 0.25 (≈ 0.816 µM) | 0.5 (≈ 1.63 µM) | 16 (≈ 52.2 µM) | – |
| O=C1c2ccccc2-c2nccc3ccnc1c23 [SAMPANGINE] | 4 (≈ 17.2 µM) | 16 (≈ 68.9 µM) | 2 (≈ 8.61 µM) | 0.5 (≈ 2.15 µM) | 0.125 (≈ 0.538 µM) | 16 (≈ 68.9 µM) | > 64 | 12.6 (≈ 54.3 µM) |
